Reference: US20080262228A1, “Metabolites of 5-fluoro-8- quinoline and methods of preparation and uses thereof” (Wyeth, priority 2006, published 2008)
“And” between values parts separate entries of the source, which are not always exact repeats. Equal values may be shown once. Read-outs that look alike come from different tables or passages of the source. Marks after values point to notes of the source that are not given here. Blank lines part the entries; values can stand above or below the compound they belong to.

Test: In vivo metabolism of [14C]COMPOUND I in Sprague-Dawley rats, single oral 5 mg/kg dose
Design: species or system rat
Conditions: for Chromatographic Distribution of Radioactivity in Pooled Plasma Samples: 5 mg/kg oral [14C]COMPOUND I; for percent of total brain radioactivity: pooled brain
Method: Dose preparation, animal dosing, and specimen collection were performed at Wyeth Research, Collegeville, Pa. The vehicle contained 2% (w/v) polysorbate 80, NF and 0.5% (w/v) methylcellulose (4000 cps) in water. [^14C]COMPOUND I trisuccinate salt (36.6 mg) and non-labeled COMPOUND I trisuccinate salt (26.7 mg) were dissolved in 1 mL of ethanol and suspended in 35 mL of the vehicle with stirring. The target [^14C]COMPOUND I concentration was approximately 1 mg/mL as free base and 70 μCi/mL with a target specific activity of 70 μCi/mg. Three pre- and post-dose aliquots (100 μL) were taken for the determination of radiochemical purity, drug and radioactivity concentrations and specific activity (see below).
Male rats weighing from 323 to 354 g and female rats weighing from 270 to 317 g at the time of dosing were purchased from Charles River Laboratories (Wilmington, Mass.). Non-fasted rats were given a single 5 mg/kg (˜350 μCi/kg) dose of [^14C]COMPOUND I at a volume of 5.0 mL/kg via intragastric gavage. Three rats were dosed for each time point. Animals were provided Purina rat chow and water ad libitum, and were kept individually in metabolism cages.
Blood samples were collected at 1, 3, 6 and 24 hr from male rats and at 1 and 3 hr from female rats after dose administration by cardiac puncture into tubes containing EDTA as the anticoagulant and placing them on ice. Triplicate aliquots (50 μL) of whole blood were removed and plasma was immediately obtained from the remaining blood by centrifugation at 4° C. Whole brain samples were collected after saline perfusion at 1, 3, 6 and 24 hr post-dose from male rats and at 1 and 3 hr post-dose from female rats. Urine samples were collected on dry ice from male rats at intervals of 0-6 and 6-24 hr post-dose. Feces were collected from male rats at 0-24 hr post-dose at room temperature. The biological specimens and aliquots of the dose suspension were stored at approximately −70° C. until analysis.
Triplicate aliquots of diluted dose (20 μL), dose fractions (10 μL), and plasma (50 μL) and urine (100 μL) from individual rats were analyzed for radioactivity concentrations. Radioactivity determinations were made with a Tri-Carb Model 3100 TR liquid scintillation counter (LSC) (Perkin Elmer) using 5 mL of Ultima Gold as the scintillation fluid.
Brain and fecal samples from individual rats were weighed and homogenized in water at a volume-to-weight ratio of about 3:1 and 5:1, respectively, with a Polytron PT homogenizer at ice-cold temperature. Duplicate aliquots of blood (50 μL), brain homogenates (0.2 g) and fecal homogenates (0.2 g) were placed on Combusto-cones with Combusto-pads and allowed to dry overnight. Samples were combusted with a model 307 Tri-Carb Sample Oxidizer, equipped with an Oximate-80 Robotic Automatic Sampler (Perkin Elmer). The liberated ^14CO2 was trapped with Carbo-Sorb E carbon dioxide absorber, mixed with PermaFluor® E^+ liquid scintillation cocktail, and counted in a Tri-Carb Model 3100 TR/LL liquid scintillation counter (Perkin Elmer).
Plasma samples were pooled by equal volumes from three animals at each time point (1, 3, 6 and 24 hr for males; 1 and 3 hr for females). Aliquots of 2 mL of pooled plasma were mixed with 2 mL of acetonitrile, placed on ice for about 10 min, and then centrifuged at 4° C. The supernatant was transferred to a clean tube. The protein pellets were extracted two more times with 4 mL of acetonitrile. The supernatants from precipitation and extraction of each sample were pooled, mixed, and evaporated at 22° C. under nitrogen in a TurboVap LV evaporator (Caliper Life Sciences, Hopkinton, Mass.) to about 1.0 mL. The concentrated extract was centrifuged, the supernatant volume measured and the extraction efficiency was determined by analyzing duplicate 10 μL aliquots for radioactivity concentrations.

[1] = female, Sprague-Dawley, rat, brain and plasma, po, 5 mg/kg, read-out: Brain/Plasma COMPOUND I Ratio
[2] = male, Sprague-Dawley, rat, brain and plasma, po, 5 mg/kg, read-out: Brain/Plasma COMPOUND I Ratio
[3] = female rats, 1 hr, 5 mg/kg oral, individual rats, 5 mg/kg
[4] = female rats, 1 hr, 5 mg/kg oral, mean ± SD, 5 mg/kg
[5] = female rats, 3 hr, 5 mg/kg oral, individual rats, 5 mg/kg
[6] = female rats, 3 hr, 5 mg/kg oral, mean ± SD, 5 mg/kg
[7] = male rats, 1 hr, 5 mg/kg oral, individual rats, 5 mg/kg
[8] = male rats, 1 hr, 5 mg/kg oral, mean ± SD, 5 mg/kg
[9] = male rats, 3 hr, 5 mg/kg oral, individual rats, 5 mg/kg
[10] = male rats, 3 hr, 5 mg/kg oral, mean ± SD, 5 mg/kg
[11] = male rats, 6 hr, 5 mg/kg oral, individual rats, 5 mg/kg
[12] = male rats, 6 hr, 5 mg/kg oral, mean ± SD, 5 mg/kg
[13] = male rats, 24 hr, 5 mg/kg oral, individual rats, 5 mg/kg
[14] = male rats, 24 hr, 5 mg/kg oral, mean ± SD, 5 mg/kg

Kp (Sprague-Dawley, rat, brain and plasma, rats, 5 mg/kg oral, read-out: brain-to-plasma ratios of COMPOUND I concentrations): 0.47 to 0.85 | concentration at 1 hr (Sprague-Dawley, rat, female rats, 1 hr, 5 mg/kg oral, mean brain radioactivity x percentage of COMPOUND I in pooled sample, read-out: Brain COMPOUND I Concentrations): 106 ng/g | concentration at 3 hr (Sprague-Dawley, rat, female rats, 3 hr, 5 mg/kg oral, mean brain radioactivity x percentage of COMPOUND I in pooled sample, read-out: Brain COMPOUND I Concentrations): 34.7 ng/g | concentration at 1 hr (Sprague-Dawley, rat, male rats, 1 hr, 5 mg/kg oral, mean brain radioactivity x percentage of COMPOUND I in pooled sample, read-out: Brain COMPOUND I Concentrations): 40.9 ng/g | concentration at 3 hr (Sprague-Dawley, rat, male rats, 3 hr, 5 mg/kg oral, mean brain radioactivity x percentage of COMPOUND I in pooled sample, read-out: Brain COMPOUND I Concentrations): 15.9 ng/g | concentration at 6 hr (Sprague-Dawley, rat, male rats, 6 hr, 5 mg/kg oral, mean brain radioactivity x percentage of COMPOUND I in pooled sample, read-out: Brain COMPOUND I Concentrations): 10 ng/g | Chromatographic Distribution of Radioactivity in Pooled Plasma Samples (female rats, 1 hr): 16.4% | percent of total brain radioactivity (female rats, 1 hr, 5 mg/kg oral): 79.5% | Chromatographic Distribution of Radioactivity in Pooled Plasma Samples (female rats, 3 hr): 14.6% | percent of total brain radioactivity (female rats, 3 hr, 5 mg/kg oral): 70.7% | Kp at 1 h [1]: 0.77 | Kp at 3 h [1]: 0.58 | Chromatographic Distribution of Radioactivity in Pooled Plasma Samples (male rats, 1 hr): 16.9% | percent of total brain radioactivity (male rats, 1 hr, 5 mg/kg oral): 80.3% | Chromatographic Distribution of Radioactivity in Pooled Plasma Samples (male rats, 3 hr): 15.5% | percent of total brain radioactivity (male rats, 3 hr, 5 mg/kg oral): 63.8% | Chromatographic Distribution of Radioactivity in Pooled Plasma Samples (male rats, 6 hr): 8.7% | percent of total brain radioactivity (male rats, 6 hr, 5 mg/kg oral): 60.5% | percent of total plasma radioactivity (male rats, from 1 to 6 hr post-dose, 5 mg/kg oral): 8.7-16.9% | percent of total radioactivity in the fecal extract (male rats, pooled 0-24 hr feces, 5 mg/kg oral): 8.1% | Kp at 1 h [2]: 0.47 | Kp at 3 h [2]: 0.54 | Kp at 6 h [2]: 0.85 | Source (rats, 5 mg/kg oral, P, plasma, F, feces, B, brain): P, B, F
Compound: COc1cc(N2CCN(C3CCN(c4ccc(F)c5cccnc45)CC3)CC2)c2ncccc2c1 [COMPOUND I, 5-Fluoro-8-{4-[4-(6-methoxyquinolin-8-yl)piperazin-1-yl]piperidin-1-yl}quinoline]

Concentration of Total Radioactivity in Whole Blood (female rats, 1 hr, 5 mg/kg oral, mean ± SD): 633 ± 157 ng equivalents/mL | Concentration of Total Radioactivity in Whole Blood (female rats, 3 hr, 5 mg/kg oral, mean ± SD): 273 ± 61.2 ng equivalents/mL | dose excreted in urine (male rats, 0-24 hr urine, 5 mg/kg oral): 3.6% | Concentration of Total Radioactivity in Whole Blood (male rats, 1 hr, 5 mg/kg oral, mean ± SD): 216 ± 42.3^a ng equivalents/mL | Concentration of Total Radioactivity in Whole Blood (male rats, 3 hr, 5 mg/kg oral, mean ± SD): 127 ± 35.1^a ng equivalents/mL | Concentration of Total Radioactivity in Whole Blood (male rats, 6 hr, 5 mg/kg oral, mean ± SD): 90.2 ± 24.1 ng equivalents/mL | Concentration of Total Radioactivity in Whole Blood (male rats, 24 hr, 5 mg/kg oral, mean ± SD): 25.7 ± 2.64 ng equivalents/mL | administered radioactivity recovered in feces (male rats, first 24 hr, 5 mg/kg oral, average): 81.9%
Compound: COc1cc(N2CCN(C3CCN(c4ccc(F)c5cccnc45)CC3)CC2)c2ncccc2c1 [[^14C]COMPOUND I, [piperazine-^14C(U)]-5-fluoro-8-(4-(4-(6-methoxyquinolin-8-yl)piperazin-1-yl)piperidin-1-yl)quinoline trisuccinate]
Concentration of Total Radioactivity in Plasma [3]: 1274 ng equivalents/mL and 854 ng equivalents/mL and 383 ng equivalents/mL | Concentration of Total Radioactivity in Whole Blood [3]: 815 ng equivalents/mL and 549 ng equivalents/mL and 536 ng equivalents/mL | Brain Radioactivity Concentrations (female rats, 1 hr, 5 mg/kg oral, individual, 5 mg/kg): 149 ng equivalents/g and 121 ng equivalents/g and 128 ng equivalents/g | Brain Radioactivity Concentrations [4]: 133 ng equivalents/g and 133 ± 15 ng equivalents/g | Concentration of Total Radioactivity in Plasma [4]: 837 ng equivalents/mL and 837 ± 446 ng equivalents/mL | Concentration of Total Radioactivity in Plasma [5]: 504 ng equivalents/mL and 298 ng equivalents/mL and 436 ng equivalents/mL | Concentration of Total Radioactivity in Whole Blood [5]: 326 ng equivalents/mL and 206 ng equivalents/mL and 287 ng equivalents/mL | Brain Radioactivity Concentrations (female rats, 3 hr, 5 mg/kg oral, individual, 5 mg/kg): 54 ng equivalents/g and 30 ng equivalents/g and 61 ng equivalents/g | Brain Radioactivity Concentrations [6]: 49 ng equivalents/g and 49 ± 16 ng equivalents/g | Concentration of Total Radioactivity in Plasma [6]: 412 ng equivalents/mL and 412 ± 105 ng equivalents/mL | Concentration of Total Radioactivity in Plasma [7]: 366 ng equivalents/mL and 295 ng equivalents/mL and 887 ng equivalents/mL | Concentration of Total Radioactivity in Whole Blood [7]: 228 ng equivalents/mL and 169 ng equivalents/mL and 251 ng equivalents/mL | Brain Radioactivity Concentrations (male rats, 1 hr, 5 mg/kg oral, individual, 5 mg/kg): 48 ng equivalents/g and 42 ng equivalents/g and 63 ng equivalents/g | Brain Radioactivity Concentrations [8]: 51 ng equivalents/g and 51 ± 11^c ng equivalents/g | Concentration of Total Radioactivity in Plasma [8]: 516 ng equivalents/mL and 516 ± 323 ng equivalents/mL | Concentration of Total Radioactivity in Plasma [9]: 172 ng equivalents/mL and 256 ng equivalents/mL and 144 ng equivalents/mL | Concentration of Total Radioactivity in Whole Blood [9]: 115 ng equivalents/mL and 166 ng equivalents/mL and 98.6 ng equivalents/mL | Brain Radioactivity Concentrations (male rats, 3 hr, 5 mg/kg oral, individual, 5 mg/kg): 22 ng equivalents/g and 31 ng equivalents/g and 23 ng equivalents/g | Brain Radioactivity Concentrations [10]: 25 ng equivalents/g and 25 ± 4.9 ng equivalents/g | Concentration of Total Radioactivity in Plasma [10]: 191 ng equivalents/mL and 191 ± 58.3^a ng equivalents/mL | Concentration of Total Radioactivity in Plasma [11]: 112 ng equivalents/mL and 114 ng equivalents/mL and 163 ng equivalents/mL | Concentration of Total Radioactivity in Whole Blood [11]: 77.2 ng equivalents/mL and 75.5 ng equivalents/mL and 118 ng equivalents/mL | Brain Radioactivity Concentrations (male rats, 6 hr, 5 mg/kg oral, individual, 5 mg/kg): 15 ng equivalents/g and 13 ng equivalents/g and 19 ng equivalents/g | Brain Radioactivity Concentrations [12]: 16 ng equivalents/g and 16 ± 3.2 ng equivalents/g | Concentration of Total Radioactivity in Plasma [12]: 130 ng equivalents/mL and 130 ± 28.9 ng equivalents/mL | Concentration of Total Radioactivity in Plasma [13]: 23.3 ng equivalents/mL and 24.2 ng equivalents/mL and 26.7 ng equivalents/mL | Concentration of Total Radioactivity in Whole Blood [13]: 22.8 ng equivalents/mL and 26.2 ng equivalents/mL and 28.0 ng equivalents/mL | Brain Radioactivity Concentrations (male rats, 24 hr, 5 mg/kg oral, individual, 5 mg/kg): 7.1 ng equivalents/g and 5.3 ng equivalents/g and 6.1 ng equivalents/g | Brain Radioactivity Concentrations [14]: 6.2 ng equivalents/g and 6.2 ± 0.9 ng equivalents/g | Concentration of Total Radioactivity in Plasma [14]: 24.7 ng equivalents/mL and 24.7 ± 1.76 ng equivalents/mL
